Assay results: patent US12606528B2, “Methods and materials for inhibiting NF-kB activity” (University of Pittsburgh - Of the Commonwealth System of …, priority 2019, dated 2026)
Like-named read-outs stand apart in the source and are kept apart here.

Legend:
NF-κB = NF-κB assay: THP1-NF-κB-LUC cells, LPS-stimulated secreted luciferase; format: cell-based; conditions: THP1-NF-κB-LUC cells, read-out: IC50 (NF-κB assay)
How it was run: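 THP1-NF-κB-LUC cells (25k/well) were pretreated with compounds for 2 h, then stimulated with LPS (10 ng/mL) for 18 h. Secreted luciferase was measured and normalized to vehicle, and IC50 was fitted from the concentration series.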

TNF release = assay: TNF assay: TNF release from LPS-stimulated human PBMCs (TNF ELISA); format: cell-based; conditions: PBMC, read-out: IC50 (TNF assay)
Experimental: 25k THP1-NF-κB-LUC cells were dispensed into 384 well plate (per well). Cells were treated with compounds with various concentrations for 2 hours before addition of LPS (10 ng/mL) for 18 hours. Secreted luciferase activity were measured using quant-luc reagents (1 bag of luc reagent dilute to 40 mL, use 10 μL per well). Data were normalized to vehicle control and graphed. Compound IC50 towards inhibiting NF-κB were determined through Prism. Similarly, 10k human PBMCs cells were cultured in 384 well plate (per well). Cells were treated with compounds with various concentrations for 2 hours before addition of LPS (10 ng/ml) for 18 hours, and supernatants were collected and assayed for TNF ELISA. Compound IC50 towards inhibiting TNF release were determined through Prism. • Activity: “+”>10 μM, “++”>1 μM and <10 μM, “+++”>0.1 μM and <1 μM, “++++”<0.1 μM.

[1] = compounds 2 hours before LPS (10 ng/mL) for 18 hours, secreted luciferase
[2] = human PBMCs, compounds 2 hours before LPS (10 ng/ml) for 18 hours, supernatant TNF ELISA
[3] = LPS-stimulated human PBMCs, TNF ELISA

SMILES	IC50 (NF-κB; [1]) [µM]	IC50 (TNF release; [2]) [µM]	IC50 (NF-κB; LPS-stimulated) [µM]	IC50 (TNF release; [3]) [µM]
CCCNS(=O)(=O)c1cc(Br)cc2c1OC(CC)C(=O)N2 (stereo not shown) [BC19229]	1 to 10	> 10		
CCC1Oc2c(cc(Br)cc2S(=O)(=O)NCc2ccccc2)NC1=O (stereo not shown) [BC19230]	< 0.1	> 10		
CCC1Oc2c(cc(Br)cc2S(=O)(=O)Nc2cccc(F)c2)NC1=O (stereo not shown) [BC19231]	< 0.1	> 10		
CCC1Oc2c(cc(Br)cc2S(=O)(=O)Nc2cccc(Cl)c2)NC1=O (stereo not shown) [BC19232]	< 0.1	> 10		
CCC1Oc2c(cc(Br)cc2S(=O)(=O)NC2CCCCC2)NC1=O (stereo not shown) [BC19233]	1 to 10	1 to 10		
CCC1Oc2c(cc(Br)cc2S(=O)(=O)Nc2ccc(C)cc2)NC1=O (stereo not shown) [BC19234]	< 0.1	1 to 10		
CC1Nc2cc(S(=O)(=O)N3CCCC3)ccc2NC1=O (stereo not shown) [BC19235]			> 10	> 10
CNC(=O)N1c2cc(S(=O)(=O)N3CCCC3)ccc2NC(=O)C1C (stereo not shown) [BC19236]			> 10	> 10
O=C(NCCN1CCOCC1)c1ccc2nc(-c3ccc(F)cc3)c(-c3ccc(F)cc3)nc2c1 [BC19237]			< 0.1	> 10
Fc1ccc(-c2nc3ccc(-c4nnnn4CCN4CCOCC4)cc3nc2-c2ccc(F)cc2)cc1 [BC19238]			< 0.1	> 10
O=C(Nc1ccc2nc(-c3ccc(F)cc3)c(-c3ccc(F)cc3)nc2c1)OCC(F)(F)F [BC19239]			0.1 to 1	> 10
Fc1ccc(-c2nc3ccc(-c4cn(CCN5CCOCC5)nn4)cc3nc2-c2ccc(F)cc2)cc1 [BC19240]			< 0.1	> 10
Cc1nc(C)c(-c2ccc3nc(-c4ccc(F)cc4)c(-c4ccc(F)cc4)nc3c2)s1 [BC19241]			1 to 10	> 10
Fc1ccc(-c2nc3ccc(-c4cccnc4)cc3nc2-c2ccc(F)cc2)cc1 [BC19242]			0.1 to 1	> 10
CS(=O)(=O)c1cncc(-c2ccc3nc(-c4ccc(F)cc4)c(-c4ccc(F)cc4)nc3c2)c1 [BC19243]			0.1 to 1	> 10
CN1CCOc2cc(-c3ccc4nc(-c5ccc(F)cc5)c(-c5ccc(F)cc5)nc4c3)ccc21 [BC19244]			> 10	> 10

SMILES	IC50 (NF-κB; [1]) [µM]	IC50 (TNF release; [2]) [µM]	IC50 (NF-κB; LPS-stimulated) [µM]	IC50 (TNF release; [3]) [µM]
Fc1ccc(-c2nc3ccc(-c4ccncc4)cc3nc2-c2ccc(F)cc2)cc1 [BC19245]			1 to 10	> 10
CCc1nnc(-c2ccc3nc(-c4ccc(F)cc4)c(-c4ccc(F)cc4)nc3c2)o1 [BC19246]			1 to 10	> 10
CCCc1nnc(-c2ccc3nc(-c4ccc(F)cc4)c(-c4ccc(F)cc4)nc3c2)[nH]1 [BC19247]			1 to 10	> 10
CS(=O)(=O)c1ccc(-c2nc3ccc(-c4ncco4)cc3nc2-c2ccc(F)cc2)s1 [BC19248]			> 10	> 10
Cc1cnc(-c2ccc3nc(-c4ccc(F)cc4)c(-c4cccs4)nc3c2)o1 [BC19249]			1 to 10	> 10
Fc1ccc(-c2nc3ccc(-c4nnco4)cc3nc2-c2ccc(F)cc2)cc1 [BC19250]			< 0.1	> 10
O=C(Nc1ccc2nc(-c3ccc(F)cc3)c(-c3ccc(F)cc3)nc2c1)C1CCNCC1 [BC19251]			< 0.1	1 to 10
O=c1c(S(=O)(=O)c2ccc(F)c(F)c2)c[nH]c2c(F)ccc(F)c12 [BC19252]	< 0.1	> 10		
Cc1ccc(F)c2[nH]cc(S(=O)(=O)c3ccc(F)c(F)c3)c(=O)c12 [BC19253]	< 0.1	> 10		
Cc1ccc(Cl)c2c(=O)c(S(=O)(=O)c3ccc(F)c(F)c3)c[nH]c12 [BC19254]	< 0.1	> 10		
COc1ccc(OC)c2c(=O)c(S(=O)(=O)c3ccc(F)c(F)c3)c[nH]c12 [BC19255]	1 to 10	> 10		
O=c1c(S(=O)(=O)c2ccc(F)c(F)c2)c(O)[nH]c2ncccc12 [BC19256]	1 to 10	> 10		
O=c1c(S(=O)(=O)c2ccc(F)c(F)c2)cnc2ccccn12 [BC19257]	> 10	> 10		
Cc1ccc(S(=O)(=O)c2c(O)[nH]c3ncccc3c2=O)cc1 [BC19258]	1 to 10	> 10		
O=c1c(S(=O)(=O)c2ccc(Cl)cc2)c(O)[nH]c2ncccc12 [BC19259]	1 to 10	> 10		
Cc1ccc(S(=O)(=O)c2nc(-c3ccccc3)oc2S(C)(=O)=O)cc1 [BC19260]			< 0.1	< 0.1
